Laboratory results reported in article PMC3546527 (MedChemComm, 2012).

Biological target: HK853 (Thermotoga maritima, UniProt Q9WZV7)
Assay: STD-NMR
Format: binding

f STD ^a: 73.3
Structure (SMILES): Nc1ncnc2c1ncn2[C@@H]1O[C@H](COP(=O)(O)OP(=O)(O)O)[C@@H](O)[C@H]1O [ADP]
